Measured values as given in PubChem BioAssay (NCI).
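In this assay, cells in 96-well plates receive the compound at five concentrations for 48 hours. Endpoints are linearly interpolated between the surrounding concentrations. The concentration for 50% growth inhibition is given as GI50. The concentration for full growth arrest is given as TGI.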

What was measured:
Experiment in all cases: NCI anticancer screen, dose series, 48 h
HCC-2998 colon = test system: HCC-2998 colon
RPMI-8226 leukemia = test system: RPMI-8226 leukemia
HS 578T breast = test system: HS 578T breast
OVCAR-8 ovarian = test system: OVCAR-8 ovarian
K-562 leukemia = test system: K-562 leukemia
MCF7 breast = test system: MCF7 breast
SK-OV-3 ovarian = test system: SK-OV-3 ovarian
NCI-H522 lung = test system: NCI-H522 lung
786-0 renal = test system: 786-0 renal
RXF 393 renal = test system: RXF 393 renal
HOP-62 NSCLC = test system: HOP-62 NSCLC
DU-145 prostate = test system: DU-145 prostate
CCRF-CEM leukemia = test system: CCRF-CEM leukemia
LOX IMVI melanoma = test system: LOX IMVI melanoma
MALME-3M melanoma = test system: MALME-3M melanoma
SK-MEL-5 melanoma = test system: SK-MEL-5 melanoma
HL-60(TB) leukemia = test system: HL-60(TB) leukemia
NCI-H23 lung = test system: NCI-H23 lung
MOLT-4 leukemia = test system: MOLT-4 leukemia
UACC-257 melanoma = test system: UACC-257 melanoma
EKVX NSCLC = test system: EKVX NSCLC
HCT-116 colon = test system: HCT-116 colon
T-47D breast = test system: T-47D breast
OVCAR-5 ovarian = test system: OVCAR-5 ovarian
SN12C renal = test system: SN12C renal
TK-10 renal = test system: TK-10 renal
ACHN renal = test system: ACHN renal
SNB-75 CNS = test system: SNB-75 CNS
OVCAR-4 ovarian = test system: OVCAR-4 ovarian
PC-3 prostate = test system: PC-3 prostate
SF-268 CNS = test system: SF-268 CNS
KM12 colon = test system: KM12 colon
COLO 205 colon = test system: COLO 205 colon
HT29 colon = test system: HT29 colon
NCI-H460 lung = test system: NCI-H460 lung
CAKI-1 renal = test system: CAKI-1 renal
A549 NSCLC = test system: A549 NSCLC
SF-295 CNS = test system: SF-295 CNS
HCT-15 colon = test system: HCT-15 colon
NCI/ADR-RES ovarian = test system: NCI/ADR-RES ovarian
U251 CNS = test system: U251 CNS
UACC-62 melanoma = test system: UACC-62 melanoma
SK-MEL-2 melanoma = test system: SK-MEL-2 melanoma
SR leukemia = test system: SR leukemia
OVCAR-3 ovarian = test system: OVCAR-3 ovarian
SNB-19 CNS = test system: SNB-19 CNS
M14 melanoma = test system: M14 melanoma
NCI-H226 lung = test system: NCI-H226 lung
IGROV1 ovarian = test system: IGROV1 ovarian
UO-31 renal = test system: UO-31 renal
A498 renal = test system: A498 renal
MDA-MB-231 breast = test system: MDA-MB-231 breast
SW-620 colon = test system: SW-620 colon
HOP-92 NSCLC = test system: HOP-92 NSCLC
SK-MEL-28 melanoma = test system: SK-MEL-28 melanoma
SF-539 CNS = test system: SF-539 CNS
MDA-MB-435 = test system: MDA-MB-435

COc1ccccc1C1C2=C(COC2=O)OC(C)(C)Oc2cc3c(cc21)OCO3 (stereo not drawn)
TGI (HCC-2998 colon): > 100 µM | TGI (RPMI-8226 leukemia): > 60.7 µM | TGI (HS 578T breast): > 100 µM | TGI (OVCAR-8 ovarian): > 100 µM | TGI (K-562 leukemia): 12.8 µM | TGI (MCF7 breast): > 31 µM | TGI (SK-OV-3 ovarian): > 100 µM | TGI (NCI-H522 lung): > 32 µM | TGI (786-0 renal): > 68.8 µM | TGI (RXF 393 renal): 4.87 µM | TGI (HOP-62 NSCLC): > 65.4 µM | TGI (DU-145 prostate): > 100 µM | TGI (CCRF-CEM leukemia): > 100 µM | TGI (LOX IMVI melanoma): > 44.2 µM | TGI (MALME-3M melanoma): > 100 µM | TGI (SK-MEL-5 melanoma): 21 µM | TGI (HL-60(TB) leukemia): 7.8 µM | TGI (NCI-H23 lung): > 59.2 µM | TGI (MOLT-4 leukemia): > 100 µM | TGI (UACC-257 melanoma): > 51.4 µM | TGI (EKVX NSCLC): 26.7 µM | TGI (HCT-116 colon): > 36.1 µM | TGI (T-47D breast): > 100 µM | TGI (OVCAR-5 ovarian): > 100 µM | TGI (SN12C renal): > 91.9 µM | TGI (TK-10 renal): > 28.8 µM | TGI (ACHN renal): > 94.1 µM | TGI (SNB-75 CNS): 8.42 µM | TGI (OVCAR-4 ovarian): > 100 µM | TGI (PC-3 prostate): > 29.7 µM | TGI (SF-268 CNS): 98.1 µM | TGI (KM12 colon): 11.4 µM | TGI (COLO 205 colon): 7.5 µM | TGI (HT29 colon): 17.3 µM | TGI (NCI-H460 lung): > 40.3 µM | TGI (CAKI-1 renal): > 29.8 µM | TGI (A549 NSCLC): > 100 µM | TGI (SF-295 CNS): > 45.6 µM | TGI (HCT-15 colon): > 100 µM | TGI (NCI/ADR-RES ovarian): > 30.8 µM | TGI (U251 CNS): > 89.3 µM | TGI (UACC-62 melanoma): > 25.4 µM | TGI (SK-MEL-2 melanoma): > 73.7 µM | TGI (SR leukemia): > 100 µM | TGI (OVCAR-3 ovarian): 13.3 µM | TGI (SNB-19 CNS): 58.2 µM | TGI (M14 melanoma): > 85.1 µM | TGI (NCI-H226 lung): > 24.8 µM | TGI (IGROV1 ovarian): > 87.1 µM | TGI (UO-31 renal): > 100 µM | TGI (A498 renal): 24.7 µM | TGI (MDA-MB-231 breast): > 32.6 µM | TGI (SW-620 colon): > 49.8 µM | TGI (HOP-92 NSCLC): > 61.5 µM | TGI (SK-MEL-28 melanoma): 72.1 µM

CCCCCCCCN(CCCCCCCC)C(=N)c1ccnc2ccccc12
GI50 (HS 578T breast): 1.71 µM | TGI (HS 578T breast): 4.81 µM | GI50 (OVCAR-8 ovarian): 1.58 µM | TGI (OVCAR-8 ovarian): 3.27 µM | GI50 (MCF7 breast): 0.261 µM | TGI (MCF7 breast): 1.21 µM | GI50 (SK-OV-3 ovarian): 1.61 µM | TGI (SK-OV-3 ovarian): 3 µM | GI50 (NCI-H522 lung): 1.48 µM | TGI (NCI-H522 lung): 2.92 µM | GI50 (786-0 renal): 1.02 µM | TGI (786-0 renal): 2.37 µM | GI50 (RXF 393 renal): 0.874 µM | TGI (RXF 393 renal): 2.36 µM | GI50 (HOP-62 NSCLC): 1.42 µM | TGI (HOP-62 NSCLC): 2.88 µM | GI50 (DU-145 prostate): 1.08 µM | TGI (DU-145 prostate): 2.31 µM | GI50 (CCRF-CEM leukemia): 0.466 µM | TGI (CCRF-CEM leukemia): 2.2 µM | GI50 (MALME-3M melanoma): 1.12 µM | TGI (MALME-3M melanoma): 2.59 µM | GI50 (HL-60(TB) leukemia): 1.3 µM | TGI (HL-60(TB) leukemia): 2.97 µM | GI50 (NCI-H23 lung): 1.49 µM | TGI (NCI-H23 lung): 3.03 µM | GI50 (UACC-257 melanoma): 1.75 µM | TGI (UACC-257 melanoma): 3.35 µM | GI50 (SF-539 CNS): 1.54 µM | TGI (SF-539 CNS): 2.99 µM | GI50 (EKVX NSCLC): 1.28 µM | TGI (EKVX NSCLC): 2.68 µM | GI50 (HCT-116 colon): 1.24 µM | TGI (HCT-116 colon): 2.55 µM | GI50 (T-47D breast): 1.24 µM | TGI (T-47D breast): 2.93 µM | GI50 (OVCAR-5 ovarian): 1.5 µM | TGI (OVCAR-5 ovarian): 3.05 µM | GI50 (SN12C renal): 1.16 µM | TGI (SN12C renal): 2.68 µM | GI50 (TK-10 renal): 1.44 µM | TGI (TK-10 renal): 2.83 µM | GI50 (ACHN renal): 1.37 µM | TGI (ACHN renal): 2.78 µM | GI50 (SNB-75 CNS): 1.01 µM | TGI (SNB-75 CNS): 2.36 µM | GI50 (OVCAR-4 ovarian): 1.2 µM | TGI (OVCAR-4 ovarian): 2.6 µM | GI50 (PC-3 prostate): 1.16 µM | TGI (PC-3 prostate): 2.52 µM | GI50 (SF-268 CNS): 1.31 µM | TGI (SF-268 CNS): 2.89 µM | GI50 (COLO 205 colon): 0.2 µM | TGI (COLO 205 colon): 0.445 µM | GI50 (HT29 colon): 0.292 µM | TGI (HT29 colon): 1.06 µM | GI50 (CAKI-1 renal): 1.17 µM | TGI (CAKI-1 renal): 2.44 µM | GI50 (A549 NSCLC): 1.58 µM | TGI (A549 NSCLC): 3.11 µM | GI50 (SF-295 CNS): 1.52 µM | TGI (SF-295 CNS): 2.92 µM | GI50 (HCT-15 colon): 0.348 µM | TGI (HCT-15 colon): 1.33 µM | GI50 (NCI/ADR-RES ovarian): 1.15 µM | TGI (NCI/ADR-RES ovarian): 2.5 µM | GI50 (U251 CNS): 1.23 µM | TGI (U251 CNS): 2.58 µM | GI50 (UACC-62 melanoma): 1.25 µM | TGI (UACC-62 melanoma): 2.65 µM | GI50 (SK-MEL-2 melanoma): 1.78 µM | TGI (SK-MEL-2 melanoma): 3.35 µM | GI50 (MDA-MB-435): 0.302 µM | TGI (MDA-MB-435): 1.07 µM | GI50 (OVCAR-3 ovarian): 1.2 µM | TGI (OVCAR-3 ovarian): 2.54 µM | GI50 (SNB-19 CNS): 1.55 µM | TGI (SNB-19 CNS): 3.17 µM | GI50 (M14 melanoma): 0.336 µM | TGI (M14 melanoma): 1.36 µM | GI50 (UO-31 renal): 0.953 µM | TGI (UO-31 renal): 2.29 µM | GI50 (A498 renal): 1.41 µM | TGI (A498 renal): 2.85 µM | GI50 (HOP-92 NSCLC): 1.02 µM | TGI (HOP-92 NSCLC): 2.32 µM | GI50 (SK-MEL-28 melanoma): 0.312 µM | TGI (SK-MEL-28 melanoma): 1.07 µM
